According to patent US10238641B2, “Materials and methods for diagnosis, prevention and/or treatment of stress disorders and conditions associated with A-beta peptide aggregation” (The United States of America as represented by the …, priority 2008, dated 2019):

Key:
nAChRs = type: cell-based, rat
ERK1/2 = experiment: BDNF-stimulated pERK1/2 in primary cortical neurons, Western blot; type: cell-based; conditions: BDNF 100 ng/ml plus cotinine 10 μM, 1 h
[1] = system: sensorimotor abilities in mice; experiment: Open field activity test; type: in vivo; conditions: data not shown
anxiety in mice = experiment: Elevated plus maze, basal anxiety; type: in vivo; conditions: cotinine 1 and 5 mg/kg
Description: Mice were placed in an EPM (Stoelting, Wood Dale, Ill., USA) made of grey plexiglas, consisting of two opposite-facing open arms, two opposite-facing closed arms, and a central area. Mice were placed at the end of one of the open arms facing toward the central area before a 5-minute test session was begun. We recorded the number of entries into the open and closed arms and assessed the exploratory behavior of the mice. We utilized a video tracking software that measures movement in each section of the maze in order to determine the time the mice were mobile exploring the different arms. Statistical significance was evaluated using One-way ANOVA with Tukey posttest. ns, not significant.
The elevated plus maze (EPM) is considered the first choice test for screening anxiolytic effects of drugs. This test is based on the fact that higher anxiety levels will decrease the drive to explore a new environment as a way to avoid a potentially dangerous areas (open arms), and will, therefore, cause the mice to stay immobile in the closed arms for a longer period of time.

transgenic Tg6799 mice = experiment: Circular platform test of reference memory; type: in vivo; conditions: cotinine 2.5 mg/kg via gavage for two months
Description: Mice of 2.5 months of age were treated or not with cotinine 2.5 mg/kg via gavage for two months and after tested in the circular platform test. In this test the number of errors to escape a 69 cm diameter circular platform containing 16 holes along its perimeter was determined in a single daily trial (300 s maximum) over 8 days of testing. Only one hole leads to an escape box, which remains the same for any given animal. To control for olfactory cures, the escape hole was relocated after each animal's trial and the maze cleaned with a dilute vinegar solution. Tg, transgenic Tg6799 mice, NT, control wild type littermate mice. N=11 mice by group.

[2] = in vivo; cited from earlier work
[3] = system: sensorimotor abilities in mice; experiment: Rotarod test; type: in vivo; conditions: two weeks of cotinine 1 mg/kg and 5 mg/kg
Description: At the end of the behavioral testing for FC, mice treated for two weeks with vehicle, cotinine 1 mg/kg and 5 mg/kg were tested in the rotarod as follows. The rotarod test was performed in an apparatus consisting of a 3 cm in diameter rod that was started at 4 rpm, accelerating up to 40 rpm for 5 min. Mice were tested for the time spent on the rod during each trial for a total of four trails per day. Testing during each trial was finished when the mouse fell off the rod and onto a spring-cushioned lever. The results are expressed as latency to fall in seconds (time spent on the rod) with 8 mice/group/treatment.
To discard a confounding effect of cotinine on learning due to changes in motor coordination and fatigue, we tested mice in the rotarod test after 2 weeks of treatment with vehicle or cotinine at the doses indicated in the figure below.

[4] = system: fear-induced anxiety in mice; experiment: Elevated plus maze after fear conditioning (fear-induced anxiety); type: in vivo
Description: Mice were trained for FC. After the retention test, the mice were tested for anxiety levels in the EPM. The number of entries into the open and closed arms and the exploratory behavior of the mice were determined using a video tracking software that measures movement in each section of the EPM.
To determine the effect of cotinine treatment on the levels of anxiety in the mice after re-exposure to a fear memory, we performed the same EPM test but 24 h after fear conditioning training (shock in the chamber) and immediately after re-exposure to the context (chamber), a reminder of the unconditioned aversive stimulus (the electric shock).

Aβ1-42 peptide = biological target: T1, Aβ1-42 peptide (Homo sapiens, UniProt P05067); experiment: Aβ oligomerization, Western blot and dot-blot immunoassays (6E10, A11 antibodies); type: biochemical
T1 construct: Aβ1-42 peptide was obtained from American Peptide; purchased American Peptide (Sunnyvale, Calif., USA)
T1 sequence (P05067 672-713 limits assumed): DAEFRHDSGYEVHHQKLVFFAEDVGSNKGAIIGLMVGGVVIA
Description: Aβ1-42 peptide was obtained from American Peptide (Sunnyvale, Calif., USA). To obtain Aβ1-42 oligomer solutions, we used a previously described protocol that results in solutions containing stable oligomers, but not fibrils for several days (Necula et al. (2007)). The lyophilized peptide was dissolved in 1 volume of 1 mM NaOH and then diluted in phosphate-buffered saline (PBS) pH 7.4 to the desired concentrations.
For the analysis of the inhibition of Aβ1-42 oligomerization/aggregation reaction, we incubated Aβ (100 μM, pH 7.4) prepared in the absence or presence of ascending concentrations of cotinine (100, 200 and 500 μM) for 7 days at 25° C. and analyzed on days 2, 5, 6 and 7. Aβ oligomerization was analyzed by Western blot and dot-blot immunoassays using antibody 6E10, which preferentially recognizes the monomeric form of Aβ and the A11 antibody that specifically recognizes the oligomeric form of the peptide but not Aβ monomers, protofibrils or fibrils.
The western blot analysis was performed as described before (Necula et al. (2007)). 10 μl-aliquots of each oligomerization reaction containing Aβ alone or Aβ plus cotinine were mixed with 5×SDS sample buffer and loaded in a 4-20% Tris-HCl gel and analyzed by Western blot using the 6E10 antibody.
The dot-blot analysis was performed as described (Necula et al. (2007)). 4-8 μl of the oligomerization mixture was applied onto nitrocellulose membranes and allowed to dry, after which the membranes were blocked for 1 h at room temperature with 10% skim milk in TBS containing 0.05% Tween 20 (TBS-T). […] After being washed with TBS-T, membranes were incubated with horseradish peroxidase-conjugated secondary antibody (1:5000) for 1 h, and visualized using enhanced chemiluminescence (Dura ECL detection kit, Pharmacia Biotech, Piscataway, N.J., USA), scanned on the Kodak Image Station 440CF, and analyzed using Molecular Imaging Software version 4.0 (Rochester, N.Y., USA) and NIH ImageJ software. The Aβ solutions for each particular day were analyzed in the same membrane and developed simultaneously. […]

## CN1C(=O)CC[C@H]1c1cccnc1 [cotinine]
nAChRs
  neuroprotective actions in presence of nAChR antagonists alpha-Bungarotoxin or mecamylamine: not affected
ERK1/2
  BDNF-stimulated phosphorylation of ERK: did not affect the BDNF-stimulated phosphorylation of ERK
[1]
  sensorimotor abilities (open field activity test): no changes in sensorimotor abilities were detected
Anxiety in mice; p=0.4471
  time spent on open arms (EPM, resting conditions): did not change
Anxiety in mice; p=0.6186
  time spent on closed arms (EPM, resting conditions): did not change
Anxiety in mice; p=0.8831
  time spent exploring the maze (EPM, resting conditions): did not change
Transgenic Tg6799 mice
  reference memory in the circular platform: prevents the loss of reference memory
[2]
  half-life: 10 to 24 h
[3]
  sensorimotor abilities, latency to fall (rotarod): did not affect sensorimotor abilities
[4]; cotinine 1 mg/kg, p=0.0060
  difference in time in the closed arms, untreated compared with cotinine (EPM after FC): highly significant
[4]; cotinine 1 mg/kg, p=0.0101
  time in the open arms, vehicle compared with cotinine (EPM after FC): significantly less time in the open arms
[4]; cotinine 1 mg/kg, p=0.0145
  time exploring, vehicle compared with cotinine (EPM after FC): significantly less time exploring
[4]; cotinine 5 mg/kg, p=0.0025
  time exploring, vehicle compared with cotinine (EPM after FC): significantly less time exploring
[4]; cotinine 5 mg/kg, p=0.0111
  difference in time in the closed arms, untreated compared with cotinine (EPM after FC): highly significant
[4]; cotinine 5 mg/kg, p=0.0545
  time in the open arms, vehicle compared with cotinine (EPM after FC): no significant differences
Aβ1-42 peptide; 100 μM Aβ1-42, cotinine 100, 200, 500 μM, 5 and 7 days at 25° C.
  levels of Aβ monomers (Western blot, 6E10): increased the levels of Aβ monomers
Aβ1-42 peptide; 100 μM Aβ1-42, cotinine 100, 200, 500 μM, days 2 and 6 at RT
  concentration of Aβ oligomers (A11 dot-blot): decreased the concentration of Aβ oligomers
Aβ1-42 peptide; 100 μM Aβ1-42, increasing cotinine, days 2 and 6 at RT
  6E10 immunoreactivity (dot-blot): higher immunoreactivity for the 6E10 antibody
